Laboratory results taken from the NIST ThermoML archive (doi:10.1007/s10765-009-0602-6).

Test: molar heat capacity at constant volume; xn = mol fraction of the nth substance listed
Settings: x1 = 0.2607

N [ammonia] + O
Settings | molar heat capacity at constant volume [J/K/mol]
581.09 K, Fluid (supercritical or subcritical phases), Mass density=476.25 kg/m3, isochoric heat capacity | 67.71
581.18 K, Fluid (supercritical or subcritical phases), Mass density=476.25 kg/m3, isochoric heat capacity | 67.34
581.36 K, Fluid (supercritical or subcritical phases), Mass density=476.25 kg/m3, isochoric heat capacity | 66.28
581.54 K, Fluid (supercritical or subcritical phases), Mass density=476.25 kg/m3, isochoric heat capacity | 66.75
581.62 K, Fluid (supercritical or subcritical phases), Mass density=476.25 kg/m3, isochoric heat capacity | 66.08
584.62 K, Fluid (supercritical or subcritical phases), Mass density=476.25 kg/m3, isochoric heat capacity | 65.81
584.71 K, Fluid (supercritical or subcritical phases), Mass density=476.25 kg/m3, isochoric heat capacity | 65.01
584.8 K, Fluid (supercritical or subcritical phases), Mass density=476.25 kg/m3, isochoric heat capacity | 64.64
584.88 K, Fluid (supercritical or subcritical phases), Mass density=476.25 kg/m3, isochoric heat capacity | 65.32
584.95 K, Fluid (supercritical or subcritical phases), Mass density=456.58 kg/m3, isochoric heat capacity | 82.04
584.95 K, Liquid, Isochoric heat capacity | 82.04
584.97 K, Fluid (supercritical or subcritical phases), Mass density=476.25 kg/m3, isochoric heat capacity | 65.26
584.98 K, Fluid (supercritical or subcritical phases), Mass density=456.58 kg/m3, isochoric heat capacity | 80.98
585.15 K, Fluid (supercritical or subcritical phases), Mass density=476.25 kg/m3, isochoric heat capacity | 64.62
585.16 K, Fluid (supercritical or subcritical phases), Mass density=456.58 kg/m3, isochoric heat capacity | 80.57
585.31 K, Fluid (supercritical or subcritical phases), Mass density=120.03 kg/m3, isochoric heat capacity | 115.43
585.31 K, Liquid, Isochoric heat capacity | 115.43
585.34 K, Fluid (supercritical or subcritical phases), Mass density=120.03 kg/m3, isochoric heat capacity | 110.25
585.4 K, Fluid (supercritical or subcritical phases), Mass density=120.03 kg/m3, isochoric heat capacity | 96.96
585.42 K, Fluid (supercritical or subcritical phases), Mass density=456.58 kg/m3, isochoric heat capacity | 79.9
585.48 K, Fluid (supercritical or subcritical phases), Mass density=120.03 kg/m3, isochoric heat capacity | 94.87
585.5 K, Fluid (supercritical or subcritical phases), Mass density=456.58 kg/m3, isochoric heat capacity | 80.27
585.62 K, Fluid (supercritical or subcritical phases), Mass density=120.03 kg/m3, isochoric heat capacity | 76.93
585.68 K, Fluid (supercritical or subcritical phases), Mass density=456.58 kg/m3, isochoric heat capacity | 78.28
585.94 K, Fluid (supercritical or subcritical phases), Mass density=120.03 kg/m3, isochoric heat capacity | 64.29
586.02 K, Fluid (supercritical or subcritical phases), Mass density=120.03 kg/m3, isochoric heat capacity | 59.53
586.11 K, Fluid (supercritical or subcritical phases), Mass density=120.03 kg/m3, isochoric heat capacity | 58.12
586.2 K, Fluid (supercritical or subcritical phases), Mass density=120.03 kg/m3, isochoric heat capacity | 53.99
586.28 K, Fluid (supercritical or subcritical phases), Mass density=120.03 kg/m3, isochoric heat capacity | 54.52
586.37 K, Fluid (supercritical or subcritical phases), Mass density=120.03 kg/m3, isochoric heat capacity | 51.14
587.06 K, Fluid (supercritical or subcritical phases), Mass density=456.58 kg/m3, isochoric heat capacity | 75.4
587.24 K, Fluid (supercritical or subcritical phases), Mass density=456.58 kg/m3, isochoric heat capacity | 75.97
587.41 K, Fluid (supercritical or subcritical phases), Mass density=456.58 kg/m3, isochoric heat capacity | 75.31
587.5 K, Fluid (supercritical or subcritical phases), Mass density=456.58 kg/m3, isochoric heat capacity | 74.46
587.58 K, Fluid (supercritical or subcritical phases), Mass density=456.58 kg/m3, isochoric heat capacity | 76.18
594.14 K, Fluid (supercritical or subcritical phases), Mass density=147.43 kg/m3, isochoric heat capacity | 103.92
594.14 K, Liquid, Isochoric heat capacity | 103.92
594.15 K, Fluid (supercritical or subcritical phases), Mass density=147.43 kg/m3, isochoric heat capacity | 93.04
594.23 K, Fluid (supercritical or subcritical phases), Mass density=147.43 kg/m3, isochoric heat capacity | 91.23
594.32 K, Fluid (supercritical or subcritical phases), Mass density=147.43 kg/m3, isochoric heat capacity | 82.61
594.49 K, Fluid (supercritical or subcritical phases), Mass density=147.43 kg/m3, isochoric heat capacity | 80.43
594.58 K, Fluid (supercritical or subcritical phases), Mass density=120.03 kg/m3, isochoric heat capacity | 43.51
594.58 K, Fluid (supercritical or subcritical phases), Mass density=147.43 kg/m3, isochoric heat capacity | 67.31
594.66 K, Fluid (supercritical or subcritical phases), Mass density=120.03 kg/m3, isochoric heat capacity | 46.88
594.66 K, Fluid (supercritical or subcritical phases), Mass density=147.43 kg/m3, isochoric heat capacity | 62.24
594.75 K, Fluid (supercritical or subcritical phases), Mass density=120.03 kg/m3, isochoric heat capacity | 46.35
594.75 K, Fluid (supercritical or subcritical phases), Mass density=147.43 kg/m3, isochoric heat capacity | 60.82
594.78 K, Fluid (supercritical or subcritical phases), Mass density=120.03 kg/m3, isochoric heat capacity | 43.67
594.84 K, Fluid (supercritical or subcritical phases), Mass density=147.43 kg/m3, isochoric heat capacity | 66.35
594.92 K, Fluid (supercritical or subcritical phases), Mass density=147.43 kg/m3, isochoric heat capacity | 53.4
595.01 K, Fluid (supercritical or subcritical phases), Mass density=120.03 kg/m3, isochoric heat capacity | 47.77
595.09 K, Fluid (supercritical or subcritical phases), Mass density=147.43 kg/m3, isochoric heat capacity | 56.72
595.1 K, Fluid (supercritical or subcritical phases), Mass density=456.58 kg/m3, isochoric heat capacity | 70.87
595.16 K, Fluid (supercritical or subcritical phases), Mass density=376.89 kg/m3, isochoric heat capacity | 99.09
595.16 K, Liquid, Isochoric heat capacity | 99.09
595.18 K, Fluid (supercritical or subcritical phases), Mass density=147.43 kg/m3, isochoric heat capacity | 52.64
595.18 K, Fluid (supercritical or subcritical phases), Mass density=376.89 kg/m3, isochoric heat capacity | 96.84
595.18 K, Fluid (supercritical or subcritical phases), Mass density=456.58 kg/m3, isochoric heat capacity | 70.11
595.27 K, Fluid (supercritical or subcritical phases), Mass density=376.89 kg/m3, isochoric heat capacity | 95.54
595.35 K, Fluid (supercritical or subcritical phases), Mass density=456.58 kg/m3, isochoric heat capacity | 71.12
595.44 K, Fluid (supercritical or subcritical phases), Mass density=147.43 kg/m3, isochoric heat capacity | 50.03
595.44 K, Fluid (supercritical or subcritical phases), Mass density=376.89 kg/m3, isochoric heat capacity | 96.07
595.44 K, Fluid (supercritical or subcritical phases), Mass density=456.58 kg/m3, isochoric heat capacity | 68.76
595.53 K, Fluid (supercritical or subcritical phases), Mass density=376.89 kg/m3, isochoric heat capacity | 92.7
595.53 K, Fluid (supercritical or subcritical phases), Mass density=456.58 kg/m3, isochoric heat capacity | 71.34
595.61 K, Fluid (supercritical or subcritical phases), Mass density=376.89 kg/m3, isochoric heat capacity | 94.85
595.61 K, Fluid (supercritical or subcritical phases), Mass density=456.58 kg/m3, isochoric heat capacity | 68.53
595.7 K, Fluid (supercritical or subcritical phases), Mass density=147.43 kg/m3, isochoric heat capacity | 52.76
595.7 K, Fluid (supercritical or subcritical phases), Mass density=456.58 kg/m3, isochoric heat capacity | 70.96
595.78 K, Fluid (supercritical or subcritical phases), Mass density=376.89 kg/m3, isochoric heat capacity | 89.45
595.87 K, Fluid (supercritical or subcritical phases), Mass density=376.89 kg/m3, isochoric heat capacity | 91.17
595.96 K, Fluid (supercritical or subcritical phases), Mass density=376.89 kg/m3, isochoric heat capacity | 88.44
597.16 K, Fluid (supercritical or subcritical phases), Mass density=376.89 kg/m3, isochoric heat capacity | 87.9
597.35 K, Fluid (supercritical or subcritical phases), Mass density=160.07 kg/m3, isochoric heat capacity | 101.99
597.36 K, Liquid, Isochoric heat capacity | 101.99
597.38 K, Fluid (supercritical or subcritical phases), Mass density=160.07 kg/m3, isochoric heat capacity | 81.69
597.43 K, Fluid (supercritical or subcritical phases), Mass density=160.07 kg/m3, isochoric heat capacity | 69.47
597.5 K, Fluid (supercritical or subcritical phases), Mass density=376.89 kg/m3, isochoric heat capacity | 85.95
597.53 K, Fluid (supercritical or subcritical phases), Mass density=160.07 kg/m3, isochoric heat capacity | 62.62
597.56 K, Fluid (supercritical or subcritical phases), Mass density=342.18 kg/m3, isochoric heat capacity | 110.99
597.56 K, Liquid, Isochoric heat capacity | 110.99
